{"source": "patent US9606106B2", "about": "“NMR-based metabolite screening platform” (THE CHILDREN'S MEDICAL CENTER CORPORATION, priority 2012, dated 2017)", "test_system": "BPLER cells", "experiment": "cell migration assay (dual-chamber with small pores)", "assay_type": "cell-based, human", "conditions": "cells transfected with siRNAs against NANS or CMAS, supplemented with NANA", "protocol": "However, NANA is incorporated on the cell surface of several proteins involved in cell adhesion, and loss of NANA was suspected to affect cell motility. Using a cell migration assay, cells were cultured in a dual-chamber containing small pores at the bottom of the top chamber, malignant cells (especially those with metastatic potential) are able to migrate through the pores and form colonies. As expected, shown in FIG. 12 BPLER have an increased migration rate as compared to HMLER cells due to their increased turmorigenic properties. […] To confirm NANA expression directly influences motility, a rescue experiment was performed in which cells transfected with siRNAs against NANS or CMAS were supplemented NANA. […] Monitoring NANA expression could predict the metastatic potential of a cell. In addition both NANS/CMAS are novel key targets to manipulate migration and metastasis.", "data": [{"compound": "CC(=O)N[C@H]1[C@H]([C@H](O)[C@H](O)CO)OC(O)(C(=O)O)C[C@@H]1O", "note": "(stereo partly shown) [NANA, N-acetylneuraminic acid]", "values": [{"measurement": "rescue of migration phenotype", "result": "partially restore"}]}]}
